Tests used:
Pde2 = target: T1, Pde2 (Staphylococcus aureus, UniProt A0A0H2XFX6); assay: radiolabelled pApA hydrolysis, TLC; format: biochemical
T1 construct: gene SAUSA300_1650

GdpP = target: T2, GdpP (Staphylococcus aureus, UniProt A0A0H2XJV8); assay: radiolabelled c-di-AMP hydrolysis, TLC; format: biochemical
T2 construct: gene SAUSA300_0014
T2 sequence (A0A0H2XJV8 entry or part of it): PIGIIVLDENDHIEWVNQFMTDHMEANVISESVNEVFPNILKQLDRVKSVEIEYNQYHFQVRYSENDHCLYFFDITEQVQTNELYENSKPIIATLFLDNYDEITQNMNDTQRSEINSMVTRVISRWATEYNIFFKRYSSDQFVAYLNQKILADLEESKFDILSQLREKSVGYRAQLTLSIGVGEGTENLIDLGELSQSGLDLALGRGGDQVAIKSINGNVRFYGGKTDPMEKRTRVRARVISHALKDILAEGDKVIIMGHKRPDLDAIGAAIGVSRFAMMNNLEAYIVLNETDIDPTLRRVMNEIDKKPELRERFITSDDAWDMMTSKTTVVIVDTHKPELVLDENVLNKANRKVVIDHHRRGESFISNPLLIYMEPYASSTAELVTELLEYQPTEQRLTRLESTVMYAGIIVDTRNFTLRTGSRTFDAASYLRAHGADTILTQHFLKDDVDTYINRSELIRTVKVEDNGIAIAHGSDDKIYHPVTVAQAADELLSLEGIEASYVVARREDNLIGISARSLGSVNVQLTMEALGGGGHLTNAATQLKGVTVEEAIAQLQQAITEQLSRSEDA

T1 sequence (A0A0H2XFX6 entry or part of it): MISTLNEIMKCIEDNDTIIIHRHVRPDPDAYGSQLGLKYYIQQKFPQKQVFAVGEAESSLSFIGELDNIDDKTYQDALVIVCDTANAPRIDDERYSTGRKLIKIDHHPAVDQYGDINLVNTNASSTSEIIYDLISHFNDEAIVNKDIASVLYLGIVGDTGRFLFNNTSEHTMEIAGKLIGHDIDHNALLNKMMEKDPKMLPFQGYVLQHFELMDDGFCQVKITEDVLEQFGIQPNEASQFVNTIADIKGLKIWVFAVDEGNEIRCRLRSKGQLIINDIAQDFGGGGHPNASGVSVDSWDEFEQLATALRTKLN

For `Nc1nc2c(ncn2[C@@H]2O[C@H](COP(=O)(O)OP(=O)(O)O)[C@@H](OP(=O)(O)OP(=O)(O)O)[C@H]2O)c(=O)[nH]1` [ppGpp], the IC50 (Pde2) was 139 ± 5.6 µM.
For `Nc1ncnc2c1ncn2[C@@H]1O[C@H](COP(=O)(O)O[C@H]2[C@@H](O)[C@H](n3cnc4c(N)ncnc43)O[C@@H]2COP(=O)(O)O)[C@@H](O)[C@H]1O` [pApA], the IC50 (GdpP) was 78 ± 2.34 µM.
